How the values were obtained:
[1] = test system: GUS activity in faecal extracts; assay: pNPG processing assay in faecal extracts of DCF-treated mice; settings: single dose DCF 60 mg/kg intraperitoneal, faeces 12 hours after, 1 mM pNPG, pH 7.4
EeGUS (−)EeLoop mutant = assay: pNPG processing by EeGUS (−)EeLoop mutant; settings: deletion of residues M149 to A159 (Ee Extra Loop); Fig. S13c
BdGUS (−)CBM Loop mutant = assay: pNPG processing by BdGUS (−)CBM Loop mutant; settings: deletion of CBM loop of BdGUS; Fig. S13a
[2] = biological target: T1, Lactobacillus rhamnosus GUS (LrGUS) (Lacticaseibacillus rhamnosus, UniProt A0A2A5L2J1); settings: pNPG as substrate; optimal pH 4.5; 37 °C
T1 sequence (A0A2A5L2J1 1-603): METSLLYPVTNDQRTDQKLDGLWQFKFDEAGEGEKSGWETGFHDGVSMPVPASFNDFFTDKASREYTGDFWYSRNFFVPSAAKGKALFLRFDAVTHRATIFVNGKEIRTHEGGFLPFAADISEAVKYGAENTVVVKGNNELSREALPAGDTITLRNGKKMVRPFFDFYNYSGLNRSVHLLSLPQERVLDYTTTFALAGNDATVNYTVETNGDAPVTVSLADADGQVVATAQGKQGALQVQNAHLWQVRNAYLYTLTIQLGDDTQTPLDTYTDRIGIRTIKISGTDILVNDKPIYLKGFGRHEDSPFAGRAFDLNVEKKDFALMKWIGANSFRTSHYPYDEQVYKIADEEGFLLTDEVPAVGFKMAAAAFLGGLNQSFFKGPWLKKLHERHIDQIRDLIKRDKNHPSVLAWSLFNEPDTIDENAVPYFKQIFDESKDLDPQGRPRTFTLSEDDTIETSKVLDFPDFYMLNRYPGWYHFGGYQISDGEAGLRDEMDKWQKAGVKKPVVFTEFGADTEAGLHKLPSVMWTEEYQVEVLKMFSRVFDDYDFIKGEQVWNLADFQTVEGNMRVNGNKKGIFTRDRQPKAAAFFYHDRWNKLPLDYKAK

E. coli GUS (EcGUS) = E. coli GUS (EcGUS) (Escherichia coli, UniProt P05804); settings: pNPG as substrate; optimal pH 7.4; cited from earlier work
E. coli GUS (EcGUS), sequence (P05804 whole entry): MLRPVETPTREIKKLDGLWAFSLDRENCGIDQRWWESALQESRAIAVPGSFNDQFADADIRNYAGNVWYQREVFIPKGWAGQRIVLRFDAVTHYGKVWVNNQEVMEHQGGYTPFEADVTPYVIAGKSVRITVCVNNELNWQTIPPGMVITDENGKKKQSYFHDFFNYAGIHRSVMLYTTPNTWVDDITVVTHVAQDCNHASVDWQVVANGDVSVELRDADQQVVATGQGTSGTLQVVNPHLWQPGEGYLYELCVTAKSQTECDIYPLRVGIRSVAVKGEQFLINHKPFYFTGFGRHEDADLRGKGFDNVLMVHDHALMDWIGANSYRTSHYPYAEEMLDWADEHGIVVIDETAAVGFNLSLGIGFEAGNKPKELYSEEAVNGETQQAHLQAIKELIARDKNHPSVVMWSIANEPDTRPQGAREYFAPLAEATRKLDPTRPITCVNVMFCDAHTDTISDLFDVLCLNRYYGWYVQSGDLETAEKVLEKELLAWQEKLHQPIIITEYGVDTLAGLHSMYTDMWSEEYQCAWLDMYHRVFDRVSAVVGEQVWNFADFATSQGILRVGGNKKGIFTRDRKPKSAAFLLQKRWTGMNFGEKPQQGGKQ

[3] = biological target: Clostridium perfringens GUS (CpGUS) (Clostridium perfringens, UniProt Q8VNV4); settings: pH 6.5
[4] = biological target: T2, Ruminococcus gnavus GUS (RgGUS) (Mediterraneibacter gnavus, UniProt A0A2N5PVZ8); format: biochemical; settings: pNPG as substrate; optimal pH 6.5; apparent value estimated at low pNPG concentrations
T2 sequence (A0A2N5PVZ8 1-603): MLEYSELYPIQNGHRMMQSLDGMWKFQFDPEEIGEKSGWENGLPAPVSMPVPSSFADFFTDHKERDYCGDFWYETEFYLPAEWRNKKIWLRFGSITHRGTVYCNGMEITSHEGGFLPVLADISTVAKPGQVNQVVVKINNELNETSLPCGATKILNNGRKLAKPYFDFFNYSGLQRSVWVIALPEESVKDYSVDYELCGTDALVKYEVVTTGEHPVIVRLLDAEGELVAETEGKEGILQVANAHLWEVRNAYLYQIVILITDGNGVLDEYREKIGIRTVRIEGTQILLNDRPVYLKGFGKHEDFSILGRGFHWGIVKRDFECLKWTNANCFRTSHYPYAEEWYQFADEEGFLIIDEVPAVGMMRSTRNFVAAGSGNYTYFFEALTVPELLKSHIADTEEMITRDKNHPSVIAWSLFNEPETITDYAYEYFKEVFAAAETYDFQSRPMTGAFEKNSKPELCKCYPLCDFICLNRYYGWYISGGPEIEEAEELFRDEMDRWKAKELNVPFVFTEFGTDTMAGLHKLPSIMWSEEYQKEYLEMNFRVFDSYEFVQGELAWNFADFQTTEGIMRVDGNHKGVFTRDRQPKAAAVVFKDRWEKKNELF

[5] = biological target: T3, Faecalibacterium prausnitzii GUS (FpGUS) (Faecalibacterium duncaniae, UniProt C7H4D2); settings: pNPG as substrate; optimal pH 6.0; 37 °C
T3 sequence (C7H4D2 1-608): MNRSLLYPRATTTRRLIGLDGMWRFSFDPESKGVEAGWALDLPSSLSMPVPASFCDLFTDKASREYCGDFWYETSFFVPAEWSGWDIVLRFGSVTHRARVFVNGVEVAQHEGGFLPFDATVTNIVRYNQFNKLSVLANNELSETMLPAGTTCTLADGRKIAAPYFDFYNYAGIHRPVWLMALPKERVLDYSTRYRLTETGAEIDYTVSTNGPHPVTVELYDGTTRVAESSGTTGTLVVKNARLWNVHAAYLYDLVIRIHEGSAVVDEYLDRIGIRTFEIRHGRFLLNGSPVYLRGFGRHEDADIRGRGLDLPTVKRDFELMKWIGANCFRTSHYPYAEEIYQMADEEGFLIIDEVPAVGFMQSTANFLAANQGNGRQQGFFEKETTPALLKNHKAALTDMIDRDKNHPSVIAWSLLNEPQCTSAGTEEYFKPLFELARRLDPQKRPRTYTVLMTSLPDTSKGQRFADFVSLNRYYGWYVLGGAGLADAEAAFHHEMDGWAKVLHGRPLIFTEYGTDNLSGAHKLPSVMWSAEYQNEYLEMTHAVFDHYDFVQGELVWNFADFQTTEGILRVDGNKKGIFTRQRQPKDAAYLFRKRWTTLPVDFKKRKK

| SMILES | GUS activity (pNPG processing) in faecal extracts compared to pre-treatment levels [1] | pNPG cleavage rate of mutant relative to WT (EeGUS (−)EeLoop mutant) [%] | activity of mutant with pNPG (in words) (BdGUS (−)CBM Loop mutant) | kcat [2] [s⁻¹] | Km (E. coli GUS (EcGUS)) [µM] | kcat (s^−1) (E. coli GUS (EcGUS)) | kcat [3] [s⁻¹] | kcat [4] [s⁻¹] | kcat [5] [s⁻¹] |
| --- | --- | --- | --- | --- | --- | --- | --- | --- | --- |
| O=C(O)Cc1ccccc1Nc1c(Cl)cccc1Cl [DCF, diclofenac] | increases GUS activity |  |  |  |  |  |  |  |  |
| O=C(O)[C@H]1O[C@@H](Oc2ccc([N+](=O)[O-])cc2)[C@H](O)[C@@H](O)[C@@H]1O [pNPG, p-nitrophenol-β-D-glucuronide] |  | 9 | inactive | 10.0 | 130 ± 10 | 120 ± 10^a s^−1 | 57 | 2.8 | 58 |

— paper PMC6351562, “Structure, function, and inhibition of drug reactivating human gut microbial β-glucuronidases” (Scientific Reports, 2019)
